Results as given in US12653865B2, “Dual-agonist compound for both GLP-1 and GIP receptors and application thereof” (Jiangsu Hengrui Pharmaceuticals Co., Ltd., priority 2020, dated 2026).
*1 amine or outer side, *2 acyl side, *3 side chain or, on linkers, in order; H or OH if unused. Where a SMILES comes first, the peptide text is derived from it. Side-chain parts run from the residue outwards. [ ]: non-standard residue; d: D form. The star is where a group is joined. C20 diacid = O=C(O)CCCCCCCCCCCCCCCCCCC(=O)*; γGlu = O=C(O)[C@H](CCC(=O)[*:2])N[*:1]; AEEA = NCCOCCOCC(=O)O; Aib = CC(C)(N)C(=O)O

What was measured:
diet-induced obese mice = experiment: Body weight and fat mass in diet-induced obese mice; type: in vivo, C57BL/6 mice; conditions: for rate of change in body weight / viscera/brain ratio for fat mass, Epididymal fat / viscera/brain ratio for fat mass, Inguinal fat / viscera/brain ratio for fat mass, Mesenteric fat / viscera/brain ratio for fat mass, Perirenal fat / viscera/brain ratio for fat mass, Scapular fat / viscera/brain ratio for fat mass, Subcutaneous fat: DIO mice; for viscera/brain ratio for fat mass, Epididymal fat / viscera/brain ratio for fat mass, Inguinal fat / viscera/brain ratio for fat mass, Mesenteric fat / viscera/brain ratio for fat mass, Perirenal fat / viscera/brain ratio for fat mass, Scapular fat / viscera/brain ratio for fat mass, Subcutaneous fat: end of study
Description: (§1) High-fat food-induced obese male C57BL/6 mice (weighing 35-55 g, aged 10-12 weeks, purchased from Shanghai Jiesijie Laboratory Animal Co., Ltd.) were tested. […] According to the experimental design, the body weight of each mouse was measured and recorded on day 0, day 3, day 6 and so on to day 27, the average body weight of each group of mice was calculated, and weight change curves were plotted by taking the body weight on the first day as the standard. At the end, the fat and other visceral organs of each part of the mice were taken out and weighed, and the viscera/brain ratio for fat in each part of each mouse was calculated. The effect of the drug on the fat was determined by comparing the change in the organ/brain ratio for fat of different parts of each group of mice.

DIO mice = experiment: Food intake ration of diet-induced obese mice; type: in vivo, C57BL/6 mice
Description: as §1
The food intake ration of mice in each group was measured daily during the test.

db/db mice = experiment: Glucose metabolism level in db/db mice; type: in vivo, C57BL/KsJ-db/db mice
Description: Each administration group contained 10 db/db mice. According to the experimental design, tail vein blood was collected by needle pricking on days 0, 7, 14, 21 and 28 and determined for fasting blood glucose levels with a glucometer and glucose dipsticks, and the mice were fasted 6 h prior to the blood collection at each time point. Tail vein blood was collected by needle pricking on days 3, 10, 17, 24 and 27 and randomly determined for blood glucose levels with a glucometer. Finally, at the end of the experiment on day 28, all the animals in the administration groups were subjected to 2-5% isoflurane inhalation anesthesia, and 100 μL of EDTA-K2 anticoagulated whole blood was collected through the orbit of each mouse and used for the determination of glycated hemoglobin.

## CC[C@H](C)[C@H](NC(=O)[C@H](CCCCN)NC(=O)[C@H](CCC(=O)O)NC(=O)[C@H](CCCCNC(=O)COCCOCCNC(=O)COCCOCCNC(=O)CC[C@H](NC(=O)CCCCCCCCCCCCCCCCCCC(=O)O)C(=O)O)NC(=O)[C@H](Cc1ccc(O)cc1)NC(=O)[C@@H](NC(=O)[C@H](CO)NC(=O)[C@H](Cc1ccc(O)cc1)NC(=O)[C@H](CC(=O)O)NC(=O)[C@H](CO)NC(=O)[C@@H](NC(=O)[C@H](Cc1ccccc1)NC(=O)[C@@H](NC(=O)CNC(=O)[C@H](CCC(=O)O)NC(=O)C(C)(C)NC(=O)[C@@H](N)Cc1ccc(O)cc1)[C@@H](C)O)[C@@H](C)O)[C@@H](C)CC)C(=O)N[C@@H](C)C(=O)N[C@@H](C)C(=O)N[C@@H](CCC(N)=O)C(=O)N[C@@H](CCC(=O)O)C(=O)N[C@@H](Cc1ccccc1)C(=O)N[C@H](C(=O)N[C@@H](CC(N)=O)C(=O)N[C@@H](Cc1c[nH]c2ccccc12)C(=O)N[C@@H](CC(C)C)C(=O)N[C@@H](CC(C)C)C(=O)N[C@@H](C)C(=O)NCC(=O)NCC(=O)N1CCC[C@H]1C(=O)N[C@@H](CO)C(=O)N[C@@H](CO)C(=O)NCC(=O)N[C@@H](C)C(=O)N1CCC[C@H]1C(=O)N1CCC[C@H]1C(=O)N1CCC[C@H]1C(=O)N[C@@H](CO)C(N)=O)C(C)C [Compound 18#] (H-Y[Aib]EGTFTSDYSIYK([AEEA-AEEA-γGlu-C20 diacid])EKIAAQEFVNWLLAGGPSSGAPPPS-NH2)
diet-induced obese mice; 3 nmol/kg sc, day 1 after administration
  rate of change in body weight: −5 ± 0.6%
diet-induced obese mice; 3 nmol/kg sc, day 6 after administration
  rate of change in body weight: −10 ± 4.4 %
diet-induced obese mice; 3 nmol/kg sc, day 7 after administration
  rate of change in body weight: −13 ± 5.3 %
diet-induced obese mice; 3 nmol/kg sc
  viscera/brain ratio for fat mass, Epididymal fat: 254.6 ± 113.4 %
  viscera/brain ratio for fat mass, Inguinal fat: 281.5 ± 140.1 %
  viscera/brain ratio for fat mass, Mesenteric fat: 84.8 ± 41.3 %
  viscera/brain ratio for fat mass, Perirenal fat: 159.2 ± 87.6 %
  viscera/brain ratio for fat mass, Scapular fat: 48 ± 15.3%
  viscera/brain ratio for fat mass, Subcutaneous fat: 120 ± 62 %
diet-induced obese mice; 10 nmol/kg sc, day 6 after administration
  rate of change in body weight: −15 ± 5.3 %
diet-induced obese mice; 10 nmol/kg sc, day 24 after administration
  rate of change in body weight: −26 ± 7.1 %
diet-induced obese mice; 10 nmol/kg sc
  viscera/brain ratio for fat mass, Epididymal fat: 211.7 ± 80.7 %
  viscera/brain ratio for fat mass, Inguinal fat: 194.4 ± 86.2 %
  viscera/brain ratio for fat mass, Mesenteric fat: 53.3 ± 14.6 %
  viscera/brain ratio for fat mass, Perirenal fat: 109.4 ± 57.1 %
  viscera/brain ratio for fat mass, Scapular fat: 42.5 ± 17^ %
  viscera/brain ratio for fat mass, Subcutaneous fat: 122 ± 73.2 %
diet-induced obese mice; 100 nmol/kg sc, day 20 after administration
  rate of change in body weight: −39 ± 6.5 %
diet-induced obese mice; 100 nmol/kg sc, day 23 after administration
  rate of change in body weight: −38 ± 5.9 %
diet-induced obese mice; 100 nmol/kg sc
  viscera/brain ratio for fat mass, Epididymal fat: 102.9 ± 32.2 %
  viscera/brain ratio for fat mass, Inguinal fat: 92 ± 34.5 %
  viscera/brain ratio for fat mass, Mesenteric fat: 27.4 ± 11.1 %
  viscera/brain ratio for fat mass, Perirenal fat: 46.6 ± 18.2 %
  viscera/brain ratio for fat mass, Scapular fat: 32.3 ± 7%
  viscera/brain ratio for fat mass, Subcutaneous fat: 57.1 ± 21.2 %
diet-induced obese mice; high-fat food-induced obese mice, 10 nmol/kg, day 27, text
  body weight reduced by: more than 20.0%
DIO mice; 3 nmol/kg sc, day 3 after administration
  daily food intake ration: 2 ± 0.5 g
DIO mice; 3 nmol/kg, 28 days after the administration
  cumulative food intake ration: 58.2 g
DIO mice; 3 nmol/kg, within 5 days after the administration
  cumulative food intake ration: 7.2 g
DIO mice; 10 nmol/kg sc, day 9 after administration
  daily food intake ration: 2 ± 0.6 g
DIO mice; 10 nmol/kg sc, day 15 after administration
  daily food intake ration: 3 ± 0.9 g
DIO mice; 10 nmol/kg sc, day 20 after administration
  daily food intake ration: 2 ± 0.5 g
DIO mice; 10 nmol/kg, 28 days after the administration
  cumulative food intake ration: 46.8 g
DIO mice; 10 nmol/kg, within 5 days after the administration
  cumulative food intake ration: 3.9 g
DIO mice; 100 nmol/kg sc, day 15 after administration
  daily food intake ration: 2 ± 0.4 g
DIO mice; 100 nmol/kg sc, day 18 after administration
  daily food intake ration: 2 ± 0.4 g
DIO mice; 100 nmol/kg, 28 days after the administration
  cumulative food intake ration: 36.7 g
DIO mice; 100 nmol/kg, within 5 days after the administration
  cumulative food intake ration: 1.8 g
db/db mice; 10 nmol/kg sc, Day 0
  Concentration of fasting blood glucose: 14.77 ± 1.30 mmol/L
  Concentration of random blood glucose: 20.42 ± 1.56 mmol/L
db/db mice; 10 nmol/kg sc, Day 7
  Concentration of fasting blood glucose: 6.05 ± 0.42 mmol/L
db/db mice; 10 nmol/kg sc, Day 10
  Concentration of random blood glucose: 20.66 ± 1.48 mmol/L
db/db mice; 10 nmol/kg sc, Day 14
  Concentration of fasting blood glucose: 6.30 ± 0.46 mmol/L
db/db mice; 10 nmol/kg sc, Day 17
  Concentration of random blood glucose: 18.91 ± 1.33 mmol/L
db/db mice; 10 nmol/kg sc, Day 21
  Concentration of fasting blood glucose: 7.89 ± 0.81 mmol/L
db/db mice; 10 nmol/kg sc, Day 24
  Concentration of random blood glucose: 21.17 ± 2.07 mmol/L
db/db mice; 10 nmol/kg sc, Day 28
  Concentration of fasting blood glucose: 9.41 ± 0.97 mmol/L
db/db mice; 10 nmol/kg sc, day 28
  Glycated hemoglobin: 4.71 ± 0.23 %
db/db mice; 30 nmol/kg sc, Day 0
  Concentration of fasting blood glucose: 14.13 ± 1.32 mmol/L
  Concentration of random blood glucose: 16.73 ± 1.59 mmol/L
db/db mice; 30 nmol/kg sc, Day 7
  Concentration of fasting blood glucose: 6.21 ± 0.26 mmol/L
db/db mice; 30 nmol/kg sc, Day 10
  Concentration of random blood glucose: 15.88 ± 1.86 mmol/L
db/db mice; 30 nmol/kg sc, Day 14
  Concentration of fasting blood glucose: 6.40 ± 0.57 mmol/L
db/db mice; 30 nmol/kg sc, Day 17
  Concentration of random blood glucose: 17.30 ± 1.17 mmol/L
db/db mice; 30 nmol/kg sc, Day 21
  Concentration of fasting blood glucose: 7.03 ± 0.52 mmol/L
db/db mice; 30 nmol/kg sc, Day 24
  Concentration of random blood glucose: 17.43 ± 1.92 mmol/L
db/db mice; 30 nmol/kg sc, Day 28
  Concentration of fasting blood glucose: 9.68 ± 1.03 mmol/L
db/db mice; 30 nmol/kg sc, day 28
  Glycated hemoglobin: 4.53 ± 0.17 %
db/db mice; 100 nmol/kg sc, Day 0
  Concentration of fasting blood glucose: 14.67 ± 1.46 mmol/L
  Concentration of random blood glucose: 9.11 ± 1.25 mmol/L
db/db mice; 100 nmol/kg sc, Day 7
  Concentration of fasting blood glucose: 5.85 ± 0.33 mmol/L
db/db mice; 100 nmol/kg sc, Day 10
  Concentration of random blood glucose: 12.34 ± 1.12 mmol/L
db/db mice; 100 nmol/kg sc, Day 14
  Concentration of fasting blood glucose: 6.25 ± 0.32 mmol/L
db/db mice; 100 nmol/kg sc, Day 17
  Concentration of random blood glucose: 11.89 ± 1.15 mmol/L
db/db mice; 100 nmol/kg sc, Day 21
  Concentration of fasting blood glucose: 6.13 ± 0.19 mmol/L
db/db mice; 100 nmol/kg sc, Day 24
  Concentration of random blood glucose: 11.51 ± 0.95 mmol/L
db/db mice; 100 nmol/kg sc, Day 28
  Concentration of fasting blood glucose: 7.89 ± 0.41 mmol/L
db/db mice; 100 nmol/kg sc, day 28, listed as 18 #
  Glycated hemoglobin: 3.78%
db/db mice; 100 nmol/kg sc, day 28, listed as #18
  Glycated hemoglobin: 3.78 ± 0.13 %
